The values below come from patent US20050070606A1, “Pharmaceutical agent for mitochondrial disorders” (Ajinomoto Co., Inc., priority 2002, published 2005).

Assay [1] deals with mRNAs of the proteins involved in the TCA cycle of liver mitochondria and the ATP generation in the electron transfer system. Put plainly: Expression of the genes for mitochondrial ATP generation-associated proteins (Taqman-PCR) in liver of rats after partial 70% hepatectomy. The format is in vivo, rat. Conditions: male F344 rats after partial 70% hepatectomy; L-alanine 2 g/10 ml/kg orally 18 and 21 hours after hepatectomy; liver at 24 hours; compared with the non-administered group; FIG. 1. The method, then: Male F344/DvCrj (Fischer) rats (age 6 weeks and body weight of 120 g) were preliminarily fed with CRF-1 (Oriental Yeast) and water for 6 weeks. Subsequently, the rats were divided in two groups of equal body weight. According to the Higgins-Anderson method (see Higgins, G. M. and Anderson, R. M., 1931, Arch. Pathol. 12: 186-191), partial 70% hepatectomy (left lobe, intermediate lobe) was performed. 18 and 21 hours after the partial hepatectomy, L-alanine at 2 g/10 ml/kg body weight in aqueous 0.3% carboxymethyl cellulose solution was administered orally (group 1), while only the aqueous 0.3% carboxymethyl cellulose solution was administered to the control group (group 2). 24 hours after the partial hepatectomy, anatomy was performed. The rats were killed by exsanguination under anesthesia and then the liver was resected and weighed. Subsequently, the liver was frozen and stored for assaying mRNA expression by the Taqman-PCR method.
To homogenize the liver, 10 ml ISOGEN (Nippon Gene) was added per 1 g of rat liver. […]
The Taqman PCR reactions were performed in duplicate to calculate the cycle time (CT) exceeding the threshold. […] By the following formula, the relative expression level was determined: Relative expression level=2^(30-CT sample)
Further, the relative value of the expression level of each gene was determined when the relative expression level of β-actin was defined as 1000.
A general note: In qPCR the cycle at which signal appears reflects the starting amount.

Assay [2] has as its system mitochondrial membrane potential. In words: Assaying mitochondrial membrane potential (JC-1 fluorescence) in liver mitochondrial suspension. Type of assay: biochemical. Conditions: rat liver mitochondria 2 μg; various concentrations of L-alanine; excitation 490 nm, emission 590 nm; FIG. 2. How it is done: A male SD (IGS) rat of age 8 weeks was killed by exsanguination under ether anesthesia and then the liver was resected and washed twice with 1×Extraction Buffer A (10 mM HEPES (2-[4-(2-hydroxyethyl)-1-piperazinyl]ethanesulfonic acid, pH 7.5, 200 mM mannitol, 70 mM sucrose, 1 mM EGTA (ethylene glycol bis(β-aminoethyl ether)-N, N,N,N-tetraacetic acid). The liver was subsequently cut into a piece of about 100 mg and weighed, which was then cut into smaller pieces in a 5-ml tube.
A 10-fold volume of 1×Extraction Buffer A (containing 2 mg/ml albumin) was added to the tube and the liver was homogenized at a low speed on ice (15 seconds). The resulting homogenate was transferred into an Eppendorf tube for centrifugation at 600 g at 4° C. for 5 minutes. The supernatant was transferred to a new tube for centrifugation at 11,000 g and 4° C. for 10 minutes. After the supernatant was discarded, the precipitate was suspended in a 10-fold volume of 1×Extraction Buffer A. The procedure from centrifugation at 600 g and 4° C. for 5 minutes to centrifugation at 11,000 g and 4° C. for 10 minutes was repeated. […]
The resulting suspension was defined as the mitochondrial suspension for the following experiments. […] For assaying fluorescence intensity (excitation at 490 nm; emission at 590 nm), 2 μl of JC-1 (1 μg/ml) was added and incubated at ambient temperature for 7 minutes.

Assay [3] concerns the target T1, COX (cytochrome C oxidase) (Rattus norvegicus, UniProt P00406+P05503).
T1 construct: from tissue; host or cells: mitochondrial suspension (liver according to the earlier reading)
In words: Assaying COX (cytochrome C oxidase) activity in liver mitochondrial suspension. Type of assay: biochemical. The conditions noted are these: rat liver mitochondria 2.5 μg, reduced cytochrome c, FIG. 3. The method, then: As described in Example 2, a mitochondrial suspension was prepared and adjusted to 0.1 mg/ml. 25 μl (2.5 μg) of mitochondria was blended with 950 μl of an assay buffer (10 mM Tris-HCl, pH 7.0, 120 mM KCl), to which various concentrations of L-alanine were added. 50 μl of cytochrome c (0.22 mM) reduced with 10 mg/ml sodium hydroxysulfite was added, and the resulting mixture was inversed and mixed together to start reaction. Immediately, the absorbance (550 nm) was counted continuously for one minute with a spectrophotometer, to record the decrease of the absorbance.

The structures appear in SMILES notation.

T1 sequence (P00406 whole entry, other chains not shown): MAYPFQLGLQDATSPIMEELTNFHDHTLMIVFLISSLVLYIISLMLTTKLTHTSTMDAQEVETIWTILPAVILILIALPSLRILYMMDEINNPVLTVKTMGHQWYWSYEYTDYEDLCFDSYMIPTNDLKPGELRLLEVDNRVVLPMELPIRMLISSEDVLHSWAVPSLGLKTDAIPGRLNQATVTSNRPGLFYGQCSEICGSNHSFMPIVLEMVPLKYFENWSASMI

`C[C@H](N)C(=O)O` [L-alanine]: the “mRNAs of the proteins involved in the TCA cycle of liver mitochondria and the ATP generation in the electron transfer system” value in assay [1] was “significantly increased”. Further, the “fluorescence intensity of JC-1 (mitochondrial membrane potential)” value in assay [2] is given as “increased in an L-alanine concentration-dependent manner”. Moreover, the “concentration from which COX activity was increased” value in assay [3] (absorbance at 550 nm) is reported as not below 2.5 mM. The COX activity entry in assay [3] (decrease of absorbance at 550 nm for one minute, various concentrations of L-alanine) is listed as “increased the COX activity in a concentration-dependent manner”.
